Among the data in patent EP4559908A1, “HETEROARYL DERIVATIVE COMPOUND AND USE THEREOF” (S2CBio Inc., priority 2022, dated 2024) are inhibition values, retold here.

SMILES strings stand for the structures.

The experiment deals with T1, human ANO6 (variant 5) (Homo sapiens, UniProt Q4KMQ2).
T1 construct: expressed in transfected cells; host or cells: Fischer rat thyroid (FRT) cells
T1 sequence (Q4KMQ2 1-931 isoform Q4KMQ2-2): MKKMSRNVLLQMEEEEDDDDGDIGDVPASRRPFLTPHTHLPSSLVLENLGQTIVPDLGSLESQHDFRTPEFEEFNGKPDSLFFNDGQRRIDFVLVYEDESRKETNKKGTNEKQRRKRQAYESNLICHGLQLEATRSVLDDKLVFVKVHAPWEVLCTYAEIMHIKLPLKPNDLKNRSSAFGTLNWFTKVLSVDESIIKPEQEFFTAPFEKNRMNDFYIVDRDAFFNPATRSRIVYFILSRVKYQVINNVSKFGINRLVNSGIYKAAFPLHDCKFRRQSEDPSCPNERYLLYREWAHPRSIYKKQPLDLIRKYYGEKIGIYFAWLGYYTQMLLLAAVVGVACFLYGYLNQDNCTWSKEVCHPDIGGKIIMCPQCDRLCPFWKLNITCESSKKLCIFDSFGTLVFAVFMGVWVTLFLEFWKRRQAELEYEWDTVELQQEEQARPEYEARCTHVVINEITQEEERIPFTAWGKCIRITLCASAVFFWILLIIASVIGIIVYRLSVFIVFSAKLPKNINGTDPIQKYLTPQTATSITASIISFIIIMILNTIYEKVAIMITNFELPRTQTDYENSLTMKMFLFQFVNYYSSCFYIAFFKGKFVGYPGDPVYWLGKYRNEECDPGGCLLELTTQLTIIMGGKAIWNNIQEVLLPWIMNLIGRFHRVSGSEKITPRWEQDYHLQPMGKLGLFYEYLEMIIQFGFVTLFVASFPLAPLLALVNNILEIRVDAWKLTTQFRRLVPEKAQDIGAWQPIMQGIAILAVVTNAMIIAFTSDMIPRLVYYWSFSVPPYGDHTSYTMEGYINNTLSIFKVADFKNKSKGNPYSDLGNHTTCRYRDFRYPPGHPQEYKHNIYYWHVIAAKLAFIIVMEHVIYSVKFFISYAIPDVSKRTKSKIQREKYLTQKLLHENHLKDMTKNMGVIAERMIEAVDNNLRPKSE
The experiment is described as follows: Lact C2 assay (measuring phosphatidylserine externalization scramblase function). The class given is cell-based. Conditions: FRT, FRT cells expressing human ANO6 (variant 5), ionomycin 10 µM, Lact-C2-GFP fluorescence, average of three tests; for inhibition at 0.05 µM: compound 50 nM, read-out: % Inhibition 50 nM; for inhibition at 0.1 µM: compound 100 nM; for inhibition at 1 µM: compound 1 µM, read-out: % Inhibition 1 µM. As for the experimental part: Ionomycin (Alomonelab, cat. # I-700), DAPI (Sigma- Aldrich, cat. # D8417), paraformaldehyde (Biosesang, cat. #P2031), Lionheart FX automated fluorescence microscope (BioTek), Gen5™ software program (BioTek), and Image J analysis software program.
After the incubation, the cells were treated with compounds dissolved in DMSO to 1% v/v in each well at each concentration (50 nM, 100 nM, and 1 µM) and reacted for 10 minutes. Thereafter, each well was treated with ionomycin to a final concentration of 10 µM, allowed to react for 10 minutes, and then washed with 200 µL PBS. After washing, each well was treated with 50 µL of Lactadherin-C2 (Lact-C2)-GFP mixed in DMEM medium to a final concentration of 500 nM to stain phosphatidylserine, and cultured at 37°C for 10 minutes. After completion of the reaction, the cells were washed with 200 µL PBS, and fixed with 4% paraformaldehyde for 5 minutes at room temperature. For morphological analysis, DAPI solution was added, and the cells were incubated for 15 minutes, followed by washing with PBS. The fluorescence intensity of Lact-C2-GFP bound to phosphatidylserine on the cell surface was measured using an automated fluorescence microscope. For quantitative analysis of the fluorescence intensity of Lact-C2-GFP, BioTek Gen5™ software and Image J analysis software programs were used.
Phosphatidylserine externalization inhibitory activity (%) by the compound was calculated through the following analysis method. Specifically, the background fluorescence value was subtracted from the measured Lact-C2-GFP fluorescence value, and the fluorescence value of the ionomycin non-treatment group and the ionomycin-treatment group in the same row where each test group was located in a 96-well microplate were calculated. In order to calculate the inhibitory activity (%) by the compound, the relative inhibitory activity was calculated by setting the compound and ionomycin non-treatment group to 100% inhibitory activity and the ionomycin alone treatment group to 0% inhibitory activity.

Take `FC(F)(F)c1ccc2nc(-c3cccc(Nc4ccc(-c5cncnc5)cc4)c3)[nH]c2c1` [Example 28, N-[4-(pyrimidin-5-yl)phenyl]-3-[6-(trifluoromethyl)-1H-benzo[d]imidazol-2-yl]aniline]: the inhibition at 0.05 µM is more than 60% and the inhibition at 0.1 µM is more than 60%.

Consider `Clc1cc2[nH]c(-c3cccc(Nc4ccc(-c5ccccn5)cc4)c3)nc2cn1` [Example 119, 3-(6-chloro-1H-imidazo[4,5-c]pyridin-2-yl)-N-[4-(2-pyridyl)phenyl]aniline], for which the inhibition at 0.05 µM was in the range of 30 to 60% and the inhibition at 1 µM is more than 60%.

Consider `CN(C)c1ccc2nc(-c3cccc(Nc4ccc(-c5cccnn5)cc4)c3)[nH]c2c1` [Example 217, N,N-dimethyl-2-(3-((4-(pyridazin-3-yl)phenyl)amino)phenyl)-1H-benzo[d]imidazol-6-amine], for which the inhibition at 0.05 µM fell in the range of 30 to 60% and the inhibition at 1 µM is more than 60%.

`COc1cc(Nc2cccc(-c3nc4ccccc4[nH]3)c2)ccc1-c1cccnn1` [Example 208, N-(3-(1H-benzo[d]imidazol-2-yl)phenyl)-3-methoxy-4-(pyridazin-3-yl)aniline]: the inhibition at 1 µM was more than 60%.

Take `Fc1ccc2nc(-c3cccc(Nc4ncc(-c5ccccn5)cn4)c3)[nH]c2c1` [Example 45, N-[3-(6-fluoro-1H-benzo[d]imidazol-2-yl)phenyl]-5-(pyridin-2-yl)pyrimidin-2-amine]: the inhibition at 0.05 µM was more than 60% and the inhibition at 0.1 µM is more than 60%.

For the compound `Clc1cc2[nH]c(-c3cccc(Nc4ncc(-c5cscn5)cn4)c3)nc2cn1` [Example 303, N-(3-(6-chloro-1H-imidazo[4,5-c]pyridin-2-yl)phenyl)-5-(thiazol-4-yl)pyrimidin-2-amine], the inhibition at 1 µM is more than 60%.

Regarding `Fc1cc2[nH]c(-c3cccc(Nc4ccc(-c5cccnn5)cc4)c3)nc2cc1Cl` [Example 102, 3-(5-chloro-6-fluoro-1H-benzo[d]imidazol-2-yl)-N-(4-pyridazin-3-ylphenyl)aniline], the inhibition at 0.05 µM is more than 60% and the inhibition at 1 µM was more than 60%.

Consider `FC(F)(F)c1cc2nc(-c3cccc(Nc4ccc(-c5ccccc5)nn4)c3)[nH]c2cc1Cl` [Example 8, N-{3-[6-chloro-5-(trifluoromethyl)-1H-benzo[d]imidazol-2-yl]phenyl}-6-phenylpyridazin-3-amine], for which the inhibition at 0.05 µM was more than 60%, the inhibition at 0.1 µM was more than 60% and the inhibition at 1 µM was more than 60%.

`FC(F)(F)c1ccccc1-c1ccc(Nc2cccc(-c3nc4ccccc4[nH]3)c2)cc1` [Example 272, N-(3-(1H-benzo[d]imidazol-2-yl)phenyl)-2'-(trifluoromethyl)-[1,1'-biphenyl]-4-amine]: the inhibition at 1 µM was more than 60%.

In the case of `FC(F)Oc1ccc2nc(-c3cccc(Nc4ncc(-c5cccnn5)cn4)c3)[nH]c2c1` [Example 287, N-(3-(6-(difluoromethoxy)-1H-benzo[d]imidazol-2-yl)phenyl)-5-(pyridazin-3-yl)pyrimidin-2-amine], the inhibition at 1 µM lay within 30 to 60%.

On to `Fc1ccc(-c2ccc(Nc3cccc(-c4nc5ccc(C(F)(F)F)cc5[nH]4)c3)cc2)nn1` [Example 264, N-(4-(6-fluoropyridazin-3-yl)phenyl)-3-(6-(trifluoromethyl)-1H-benzo[d]imidazol-2-yl) aniline], for which the inhibition at 0.05 µM was more than 60%.

In the case of `CC(C)OC(=O)c1ccc2nc(-c3cccc(Nc4ccc(-c5cccnn5)cc4)c3)[nH]c2c1` [Example 111, isopropyl 2-(3-((4-(pyridazin-3-yl)phenyl)amino)phenyl)-1H-benzo[d]imidazole-6-carboxylate], the inhibition at 0.05 µM lay within 30 to 60% and the inhibition at 1 µM was more than 60%.

In the case of `Clc1ccc2nc(-c3cccc(Nc4ncc(-c5ccccn5)cn4)c3)[nH]c2c1` [Example 82, N-[3-(6-chloro-1H-benzo[d]imidazol-2-yl)phenyl]-5-(2-pyridyl)pyrimidin-2-amine], the inhibition at 0.05 µM is more than 60%.

On to `c1cc(Nc2ccc(-c3ccncn3)nn2)cc(-c2nc3ccccc3[nH]2)c1` [Example 257, N-(3-(1H-benzo[d]imidazol-2-yl)phenyl)-6-(pyrimidin-4-yl)pyridazin-3-amine], for which the inhibition at 1 µM lay within 30 to 60%.

For `c1ccc(-c2ccc(Nc3cccc(-c4nc5ccccc5[nH]4)c3)cc2)nc1` [Example 20, 3-(1H-benzo[d]imidazol-2-yl)-N-(4-(pyridin-2-yl)phenyl)aniline], the inhibition at 0.05 µM is more than 60%, the inhibition at 0.1 µM was more than 60% and the inhibition at 1 µM was more than 60%.

Regarding `Clc1cc2[nH]c(-c3cccc(Nc4ccc(-c5ccccn5)cn4)c3)nc2cn1` [Example 282, N-(3-(6-chloro-1H-imidazo[4,5-c]pyridin-2-yl)phenyl)-[2,3'-bipyridin]-6'-amine], the inhibition at 0.05 µM is 30 to 60% and the inhibition at 1 µM was more than 60%.

Regarding `FC(F)(F)Oc1ccc2nc(-c3cccc(Nc4ccc(-c5ccccc5)nn4)c3)[nH]c2c1` [Example 6, 6-phenyl-N-(3-(6-(trifluoromethoxy)-1H-benzo[d]imidazol-2-yl)phenyl)pyridazin-3-amine], the inhibition at 0.1 µM is more than 60% and the inhibition at 1 µM is more than 60%.

As for `FC(F)(F)c1ccc2nc(-c3cccc(Nc4ccc(-c5ccccn5)cn4)c3)[nH]c2c1` [Example 57, N-{3-[6-(trifluoromethyl)-1H-benzo[d]imidazol-2-yl]phenyl}-[2,3'-bipyridin]-6'-amine], the inhibition at 0.05 µM is more than 60% and the inhibition at 0.1 µM is more than 60%.

For the compound `COc1ccc2nc(-c3cccc(Nc4cnc(-c5ccccn5)cn4)c3)[nH]c2c1` [Example 299, N-(3-(6-methoxy-1H-benzo[d]imidazol-2-yl)phenyl)-5-(pyridin-2-yl)pyrazin-2-amine], the inhibition at 1 µM was more than 60%.

As for `FC(F)(F)c1cc2[nH]c(-c3cccc(Nc4ccc(-c5ccncn5)cc4)c3)nc2cn1` [Example 86, N-(4-pyrimidin-4-ylphenyl)-3-[6-(trifluoromethyl)-1H-imidazo[4,5-c]pyridin-2-yl]aniline], the inhibition at 1 µM was more than 60%.

For the compound `CN1CCN(c2ccc(-c3nc4ccc(C(F)(F)F)cc4[nH]3)cc2Nc2ncc(-c3cccnn3)cn2)CC1` [Example 176, N-(2-(4-methylpiperazin-1-yl)-5-(6-(trifluoromethyl)-lH-benzo[d]imidazol-2-yl)phenyl)-5-(pyridazin-3-yl)pyrimidin-2-amine], the inhibition at 1 µM was in the range of 30 to 60%.

For `c1cc(Nc2ccc(C3CCCCC3)cc2)cc(-c2nc3ccccc3[nH]2)c1` [Example 97, 3-(1H-benzo[d]imidazol-2-yl)-N-(4-cyclohexylphenyl)aniline], the inhibition at 1 µM is more than 60%.

Take `FC(F)(F)c1ccc2nc(-c3cccc(Nc4ccc(-c5cccnn5)cc4)c3)[nH]c2c1` [Example 23, N-(4-(pyridazin-3-yl)phenyl)-3-(6-(trifluoromethyl)-1H-benzo[d]imidazol-2-yl)aniline]: the inhibition at 0.05 µM was more than 60%, the inhibition at 0.1 µM was more than 60% and the inhibition at 1 µM was more than 60%.

By inhibition is commonly meant the percentage by which the read-out fell short of the control.
